Reference: the supplement of paper PMC10307832

Tests used:
Assay in all cases: relative viability (nuclei count vs DMSO), 5 days (fraction); higher = more cells survive
[1] = tested on: NCI-H1355
Method in brief: (§1)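 A single step with final 0.05% Triton X-100, 1% formaldehyde and 1 ug/ml Hoechst fixed the cells and stained nuclei 5 days after treatment. Lung cancer cell lines in 1536-well plates had been treated by pin tool the day after seeding with one drug alone or a fixed anchor-drug dose plus five library-drug doses (not always all listed) in √10 steps, and nuclei were counted on 4× images. Relative viability is the ratio of nuclei in treated wells to nuclei in vehicle wells, taken as the median of duplicate plates.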

[2] = tested on: HCC-78
Method in brief: as §1

[3] = tested on: HCC-366
Method in brief: as §1

[4] = tested on: BEN
Method in brief: as §1

[5] = tested on: NCI-H838
Method in brief: as §1

[6] = tested on: NCI-H520
Method in brief: as §1

[7] = tested on: UMC-11
Method in brief: as §1

[8] = tested on: NCI-H727
Method in brief: as §1

[9] = tested on: SW 1573
Method in brief: as §1

[10] = tested on: NCI-H2347
Method in brief: as §1

[11] = tested on: NCI-H2228
Method in brief: as §1

[12] = tested on: NCI-H2009
Method in brief: as §1

[13] = tested on: NCI-H358
Method in brief: as §1

[14] = tested on: HCC-44
Method in brief: as §1

[15] = tested on: LK-2
Method in brief: as §1

[16] = tested on: 201T
Method in brief: as §1

[17] = tested on: NCI-H1755
Method in brief: as §1

[18] = tested on: NCI-H1666
Method in brief: as §1

[19] = tested on: NCI-H2405
Method in brief: as §1

[20] = tested on: NCI-H1650
Method in brief: as §1

[21] = tested on: NCI-H1734
Method in brief: as §1

[22] = tested on: LOU-NH91
Method in brief: as §1

[23] = tested on: ABC-1
Method in brief: as §1

For CCCCCCCCCCCC1=C(O)C(=O)C=C(O)C1=O [Embelin] + CC(=O)c1c(C)c2cnc(Nc3ccc(N4CCNCC4)cn3)nc2n(C2CCCC2)c1=O [Palbociclib] (partner 0.5 µM), the relative viability ([1]; first compound 0.08 µM) was 0.411, the relative viability ([1]; first compound 0.8 µM) was 0.416 and the relative viability ([1]; first compound 2.53 µM) was 0.398. The relative viability ([1]; first compound 8 µM) was 0.366, the relative viability ([2]; first compound 0.08 µM) was 0.514 and the relative viability ([2]; first compound 0.8 µM) was 0.446. For the same compound, the relative viability ([2]; first compound 2.53 µM) was 0.558, the relative viability ([2]; first compound 8 µM) was 0.48 and the relative viability ([3]; first compound 0.08 µM) was 0.35. For the same compound, the relative viability ([3]; first compound 0.8 µM) was 0.391, the relative viability ([3]; first compound 2.53 µM) was 0.49 and the relative viability ([3]; first compound 8 µM) was 0.453. It also gave a relative viability ([4]; first compound 0.08 µM) of 0.486, a relative viability ([4]; first compound 0.8 µM) of 0.545 and a relative viability ([4]; first compound 2.53 µM) of 0.486. It also gave a relative viability ([4]; first compound 8 µM) of 0.481, a relative viability ([5]; first compound 0.08 µM) of 0.249 and a relative viability ([5]; first compound 0.8 µM) of 0.232. For the same compound, the relative viability ([5]; first compound 2.53 µM) was 0.224, the relative viability ([5]; first compound 8 µM) was 0.21 and the relative viability ([6]; first compound 0.08 µM) was 0.303. The relative viability ([6]; first compound 0.8 µM) was 0.186, the relative viability ([6]; first compound 2.53 µM) was 0.246 and the relative viability ([6]; first compound 8 µM) was 0.214. The relative viability ([7]; first compound 0.08 µM) was 0.337, the relative viability ([7]; first compound 0.8 µM) was 0.36 and the relative viability ([7]; first compound 2.53 µM) was 0.323. It also gave a relative viability ([7]; first compound 8 µM) of 0.37, a relative viability ([8]; first compound 0.08 µM) of 0.657 and a relative viability ([8]; first compound 0.8 µM) of 0.701. For the same compound, the relative viability ([8]; first compound 2.53 µM) was 0.693, the relative viability ([8]; first compound 8 µM) was 0.661 and the relative viability ([9]; first compound 0.08 µM) was 0.344. For the same compound, the relative viability ([9]; first compound 0.8 µM) was 0.498, the relative viability ([9]; first compound 2.53 µM) was 0.37 and the relative viability ([9]; first compound 8 µM) was 0.422. It also gave a relative viability ([10]; first compound 0.08 µM) of 0.47, a relative viability ([10]; first compound 0.8 µM) of 0.387 and a relative viability ([10]; first compound 2.53 µM) of 0.451. It also gave a relative viability ([10]; first compound 8 µM) of 0.389, a relative viability ([11]; first compound 0.08 µM) of 0.824 and a relative viability ([11]; first compound 0.8 µM) of 0.865. For the same compound, the relative viability ([11]; first compound 2.53 µM) was 0.68, the relative viability ([11]; first compound 8 µM) was 0.834 and the relative viability ([12]; first compound 0.08 µM) was 0.223. The relative viability ([12]; first compound 0.8 µM) was 0.277, the relative viability ([12]; first compound 2.53 µM) was 0.208 and the relative viability ([12]; first compound 8 µM) was 0.186. The relative viability ([13]; first compound 0.08 µM) was 0.133, the relative viability ([13]; first compound 0.8 µM) was 0.161 and the relative viability ([13]; first compound 2.53 µM) was 0.141. It also gave a relative viability ([13]; first compound 8 µM) of 0.131, a relative viability ([14]; first compound 0.08 µM) of 0.951 and a relative viability ([14]; first compound 0.8 µM) of 1.02. The relative viability ([14]; first compound 2.53 µM) was 0.984, the relative viability ([14]; first compound 8 µM) was 0.979 and the relative viability ([15]; first compound 0.08 µM) was 0.647. It also gave a relative viability ([15]; first compound 0.8 µM) of 0.753, a relative viability ([15]; first compound 2.53 µM) of 0.806 and a relative viability ([15]; first compound 8 µM) of 0.702. It also gave a relative viability ([16]; first compound 0.08 µM) of 0.375, a relative viability ([16]; first compound 0.8 µM) of 0.377 and a relative viability ([16]; first compound 2.53 µM) of 0.391. The relative viability ([16]; first compound 8 µM) was 0.353, the relative viability ([17]; first compound 0.08 µM) was 0.471 and the relative viability ([17]; first compound 0.8 µM) was 0.483. For the same compound, the relative viability ([17]; first compound 2.53 µM) was 0.376, the relative viability ([17]; first compound 8 µM) was 0.427 and the relative viability ([18]; first compound 0.08 µM) was 0.638. It also gave a relative viability ([18]; first compound 0.8 µM) of 0.624, a relative viability ([18]; first compound 2.53 µM) of 0.641 and a relative viability ([18]; first compound 8 µM) of 0.681. It also gave a relative viability ([19]; first compound 0.08 µM) of 0.543, a relative viability ([19]; first compound 0.8 µM) of 0.575 and a relative viability ([19]; first compound 2.53 µM) of 0.511. It also gave a relative viability ([19]; first compound 8 µM) of 0.535, a relative viability ([20]; first compound 0.08 µM) of 0.358 and a relative viability ([20]; first compound 0.8 µM) of 0.406. It also gave a relative viability ([20]; first compound 2.53 µM) of 0.38, a relative viability ([20]; first compound 8 µM) of 0.354 and a relative viability ([21]; first compound 0.08 µM) of 0.347. The relative viability ([21]; first compound 0.8 µM) was 0.349, the relative viability ([21]; first compound 2.53 µM) was 0.392 and the relative viability ([21]; first compound 8 µM) was 0.346. The relative viability ([22]; first compound 0.08 µM) was 0.551, the relative viability ([22]; first compound 0.8 µM) was 0.556 and the relative viability ([22]; first compound 2.53 µM) was 0.542. The relative viability ([22]; first compound 8 µM) was 0.52, the relative viability ([23]; first compound 0.08 µM) was 0.752 and the relative viability ([23]; first compound 0.8 µM) was 0.664. The relative viability ([23]; first compound 2.53 µM) was 0.733 and the relative viability ([23]; first compound 8 µM) was 0.72.
